Assay results reported in US8981179B2, “Transgenic non-human animal and uses thereof” (Sanofi, priority 2009, dated 2015).

What was measured:
[1] = biological target: T1, mGluR7 (Mus musculus, UniProt Q68ED2); test: Whole brain slice luminescence, Gi agonist with isoproterenol; type: cell-based; parameters: from tissue; host or cells: hippocampal brain slices, CreLuc mouse line 187; conditions: line 187, 1 uM AMN082 in combination with 1 uM ISO
Method: Whole brain slices were used to show the effects of compounds on luminescence in CreLuc mice (FIG. 8A, 8B). In general, brains from CreLuc mice can be harvested and then either cut into slices on a microtome or various subregions can also be dissected out and then sliced on a microtome. The slices can then be incubated with different compounds such as forskolin and rolipram, or GPCR specific compounds. Luciferase levels can then be measured with an IVIS bioimager or a photomultiplier with a carousel to take quantitative timecourse measurements.
Brain slices from the hippocampal region of CreLuc mice (line #187) were incubated with 1 uM isoproterenol (Sigma, cat#5627) for 2 days. […] (FIG. 8A, bottom panel). Thus, isoproterenol was used to increase the luciferase signal window which allows for screening GPCR specific compounds such as Gi agonists. AMN082 (AMN, Tocris Bioscience, Cat. No. 2385) is an mGluR7 agonist and mGluR7 is a receptor that is coupled to Gi. When brain slices were treated with 1 uM ISO in combination with 1 uM AMN082, the luciferase signal was diminished in comparison to ISO treatment alone.

[2] = biological target: T1, mGluR7; test: Primary cortical neurons CreLuc luciferase assay, Gi modulation via mGluR7; type: cell-based; parameters: endogenous in cells; host or cells: primary cortical neurons, E18 embryos, CreLuc mouse line 187
From the text: (§1) A general schematic of the workflow for the isolation and compound treatment of primary neuronal cells from the CreLuc model is depicted in FIG. 9. Cortices or other brain subregions are removed from embryos, usually embryonic (E) day 17 or 18, but also as early as E14. The individual neurons are then isolated and plated onto 96 well assay plates. Assays are run either in triplicate or quadruplicate. The assays are run from day 3 in culture up until day 7 or day 10 in culture depending on the expression levels of the target GPCR. Compounds are added to the plates then at a set timepoint, Bright Glo (Promega, Cat #E2610) is added to the plates and the assay is then run on a TopCount or other luminometer.
Primary cell cultures from the CreLuc mice may be used to screen compounds that are capable of modulating Gi coupled receptors. […] Cortical neurons were harvested from E18 embryos. The assay was run at day 3 in culture. Forskolin was used at 10 μM to give a larger signal window to be used to detect Gi activity. The mGluR7 agonist, AMN082 was used in combination with forskolin at 1 nM, 10 nM, 100 nM and 1 μM. The assay was read on a TopCount with Bright Glo (Promega) at 4 hours, and 8 hours. […] The CreLuc mice can be used to screen for compounds that modulate Gq coupled receptors.
However, to increase the signal window even wider, rolipram (blocks the breakdown of cAMP) was used in combination with forskolin. Primary cortical neurons were isolated from E18 embryos from line 187 which was previously determined to have inducible brain and spinal cord expression. The assay, in triplicates, was run at day 7 in culture for 6 hours. A dose curve, 10 μM down to 1 nM, for AMN082 was run in combination with 50 μM forskolin and 10 μM rolipram. The assay was read on a TopCount luminometer with Bright Glo substrate (Promega). […] All lines used were previously determined to have inducible luciferase expression levels in whole brain tissue extracts (data not shown). […] Bright Glo luciferase assay substrate was then added, and the assay read on a Topcount luminometer. […]

[3] = biological target: T2, adrenoceptor beta3 (Adrb3) (Mus musculus, UniProt P25962); test: Induction of luciferase by Adrb3 agonist in CRE-Luc mice (tissue homogenates, bioimaging); type: in vivo; conditions: 1 mg/kg, ip
T2 construct: from tissue; host or cells: whole animal; luciferase read in tissue homogenates (adipose tissue, lung and others) and by bioimaging
Method: The luciferase assay was performed in tissue homogenates.

[4] = biological target: T3, CB1 (Mus musculus, UniProt P47746); test: Primary cortical neurons CreLuc luciferase assay, Gi modulation by CB1 agonist; type: cell-based
T3 construct: endogenous in cells; host or cells: primary cortical neurons, E18, CreLuc mouse lines 69, 187, 175, 219
Method: However, to increase the signal window even wider, rolipram (blocks the breakdown of cAMP) was used in combination with forskolin. Primary cortical neurons were isolated from E18 embryos from line 187 which was previously determined to have inducible brain and spinal cord expression. The assay, in triplicates, was run at day 7 in culture for 6 hours. A dose curve, 10 μM down to 1 nM, for AMN082 was run in combination with 50 μM forskolin and 10 μM rolipram. The assay was read on a TopCount luminometer with Bright Glo substrate (Promega). […] Gi modulation of luciferase expression in primary cortical neurons from different CreLuc lines by the CB1 agonist, CP 55,940 was performed in the presence of forskolin and rolipram (FIG. 15). Primary cortical neurons were harvested from lines 69, 187, 175 and 219 at E18. All lines used were previously determined to have inducible luciferase expression levels in whole brain tissue extracts (data not shown). The assays were run on day three in culture. The CB1 agonist was used at 10 μM, forskolin at 5 μM and rolipram at 10 μM. […] Bright Glo luciferase assay substrate was then added, and the assay read on a Topcount luminometer. […]
Gi modulation of luciferase in primary cortical neurons from CreLuc mice by the CB1 agonist, CP 55,940 was in a dose-dependent manner (FIG. 15B). […] The assay was read on a TopCount with BrightGlo (Promega) at 8 hours.

[5] = system: plasma cAMP; conditions: Balb/c mice, 10 mg/kg, blood harvested after 20 minutes; cited from earlier work
[6] = biological target: T4, D1 dopamine receptors (DRD1) (Mus musculus, UniProt Q61616); test: Primary cortical neurons CreLuc luciferase assay, Gs modulation via DRD1; type: cell-based; conditions: 4 hours
T4 construct: Neurons were isolated from the cortices of line 187 E18 embryos; endogenous in cells; host or cells: primary cortical neurons (E18) and striatal neurons (E14), CreLuc mouse line 187
From the text: as §1
The assay was run in triplicates on day three in culture. Forskolin was used at 5 μM, rolipram at 10 μM and the Gs agonists, ADβR-isoproterenol; and Dopamine-SKF82958 (MFG, Cat #C130) at 10 μM. At 4 hours, Bright Glo was added and the assays run on a Topcount. Forskolin is a general activator of cAMP.

[7] = biological target: T5, glucagon-like peptide 1 receptor (GLP-1R) (Mus musculus, UniProt O35659); test: Induction of luciferase reporter by GLP-1R agonist in CRE-Luc mice (bioimaging, tissue homogenates); type: in vivo
T5 construct: from tissue; host or cells: whole animal; bioimaging and tissue homogenates, signal in the pancreas
T5 sequence (O35659 22-463): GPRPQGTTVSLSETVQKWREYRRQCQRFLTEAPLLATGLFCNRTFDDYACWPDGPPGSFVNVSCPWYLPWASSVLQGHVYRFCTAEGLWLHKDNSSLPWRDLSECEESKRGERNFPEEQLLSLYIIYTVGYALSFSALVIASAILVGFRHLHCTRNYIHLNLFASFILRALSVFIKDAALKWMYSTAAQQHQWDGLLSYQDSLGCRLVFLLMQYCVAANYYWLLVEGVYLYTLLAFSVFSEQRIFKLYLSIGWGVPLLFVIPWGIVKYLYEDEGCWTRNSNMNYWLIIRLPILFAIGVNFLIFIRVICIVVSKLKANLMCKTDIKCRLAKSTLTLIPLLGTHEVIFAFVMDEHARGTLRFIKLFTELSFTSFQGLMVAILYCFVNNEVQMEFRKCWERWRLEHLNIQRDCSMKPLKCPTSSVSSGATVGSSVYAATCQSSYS
Method: Transgene activation co-localizes with tissue specific receptor activation as exemplified by the induction of luciferase reporter by the glucagon-like peptide 1 receptor (GLP-1R) agonist, AVE0010, which was studied in three independent lines of CRE-Luc mice (FIG. 28). The GLP-1R is Gs coupled. Baseline images were acquired on day 1. On day 2, mice were treated with AVE0010 (0.1 mg/kg, sc) and imaged after 4 hours. Folds of induction over baseline were indicated at the bottom. […] Luciferase activities in 8 different tissues were measured for lines 11, 16 and 90 (FIG. 29) following treatment with AVE0010 (0.1 mg/kg, s.c.) for 4 hours. […] The activity of AVE0010 is limited to the pancreas even though GLP-1R is found in different tissue types.
The induction of Cre-Luc by AVE0010 is likely beta-cell mediated. The effects of the beta-cell toxin streptozotocin (STZ) on the induction of CRE-Luc by AVE0010 was investigated (FIG. 30). Male CRE-luc mice were imaged before and after AVE0010 (0.1 mg/kg, sc) treatment. […] Then, the animals were treated with vehicle or STZ (200 mpk, ip). Four days later, they were imaged again after AVE0010 treatment.

[8] = Blood glucose in unfasted CRE-luc mice; type: in vivo, mouse; conditions: line 11, AVE0010 0.1 mg/kg, sc
Method: The induction of CRE-Luc by AVE0010 is likely beta-cell-specific (FIG. 31). Animals were treated as described in FIG. 30. Blood glucose levels were measured by tail vein nicking on unfasted mice. Glucose levels were read on a Bayer glucometer. Glucose levels are shown as mg glucose/[…]. Fold induction is the luciferase bioimaging levels of AVE10 dosing versus the baseline signals. Blood glucose levels (BG) were increased by STZ (upper left panel). Non-fasting BG levels were reduced by AVE0010 (0.1 mg/kg, sc).

T1 sequence (Q68ED2 35-915): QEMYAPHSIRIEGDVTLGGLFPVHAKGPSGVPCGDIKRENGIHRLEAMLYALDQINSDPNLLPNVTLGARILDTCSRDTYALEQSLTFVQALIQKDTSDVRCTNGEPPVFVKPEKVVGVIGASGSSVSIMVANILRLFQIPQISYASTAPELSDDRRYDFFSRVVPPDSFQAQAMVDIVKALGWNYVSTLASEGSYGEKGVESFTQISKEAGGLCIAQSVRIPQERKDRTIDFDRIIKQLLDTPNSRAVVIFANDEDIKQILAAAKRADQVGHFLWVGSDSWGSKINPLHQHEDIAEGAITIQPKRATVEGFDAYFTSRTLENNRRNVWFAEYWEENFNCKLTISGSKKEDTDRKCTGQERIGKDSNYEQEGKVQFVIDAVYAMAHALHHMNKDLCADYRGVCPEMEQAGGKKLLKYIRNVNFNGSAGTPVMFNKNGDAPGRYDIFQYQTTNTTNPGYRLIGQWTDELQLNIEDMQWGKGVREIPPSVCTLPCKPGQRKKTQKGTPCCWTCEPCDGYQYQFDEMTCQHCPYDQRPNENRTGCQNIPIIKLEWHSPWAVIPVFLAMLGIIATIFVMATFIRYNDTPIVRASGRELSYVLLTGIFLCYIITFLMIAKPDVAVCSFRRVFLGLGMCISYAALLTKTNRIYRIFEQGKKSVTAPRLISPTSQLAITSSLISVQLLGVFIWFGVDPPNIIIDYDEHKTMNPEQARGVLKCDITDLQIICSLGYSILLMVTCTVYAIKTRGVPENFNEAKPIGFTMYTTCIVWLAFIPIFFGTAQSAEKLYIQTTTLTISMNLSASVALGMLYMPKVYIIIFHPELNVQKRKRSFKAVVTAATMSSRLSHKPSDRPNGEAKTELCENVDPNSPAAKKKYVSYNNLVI
T4 sequence (Q61616 whole entry): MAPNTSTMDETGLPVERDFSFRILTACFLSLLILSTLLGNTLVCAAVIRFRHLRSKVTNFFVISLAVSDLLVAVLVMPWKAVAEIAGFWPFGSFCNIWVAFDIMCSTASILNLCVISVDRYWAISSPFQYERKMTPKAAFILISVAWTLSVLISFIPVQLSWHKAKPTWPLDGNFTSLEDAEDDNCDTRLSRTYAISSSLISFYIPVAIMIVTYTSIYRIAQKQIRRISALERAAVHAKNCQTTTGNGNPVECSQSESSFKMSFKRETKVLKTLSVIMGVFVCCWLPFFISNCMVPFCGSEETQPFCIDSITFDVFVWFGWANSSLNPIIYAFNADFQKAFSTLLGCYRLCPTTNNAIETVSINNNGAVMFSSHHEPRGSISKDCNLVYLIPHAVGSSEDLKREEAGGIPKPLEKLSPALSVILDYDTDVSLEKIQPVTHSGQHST
T2 sequence (P25962 whole entry): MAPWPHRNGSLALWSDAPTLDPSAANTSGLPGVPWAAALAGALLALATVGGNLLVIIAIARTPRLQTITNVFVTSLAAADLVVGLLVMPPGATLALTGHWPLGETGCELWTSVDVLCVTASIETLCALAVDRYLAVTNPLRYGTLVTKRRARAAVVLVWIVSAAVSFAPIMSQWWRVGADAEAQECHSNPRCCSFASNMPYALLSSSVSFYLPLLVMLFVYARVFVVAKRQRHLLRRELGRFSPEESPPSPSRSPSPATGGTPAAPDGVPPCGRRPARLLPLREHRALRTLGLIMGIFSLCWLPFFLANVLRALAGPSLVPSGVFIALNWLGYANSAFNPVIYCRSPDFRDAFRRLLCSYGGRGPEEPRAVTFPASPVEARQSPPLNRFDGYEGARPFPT
T3 sequence (P47746 whole entry): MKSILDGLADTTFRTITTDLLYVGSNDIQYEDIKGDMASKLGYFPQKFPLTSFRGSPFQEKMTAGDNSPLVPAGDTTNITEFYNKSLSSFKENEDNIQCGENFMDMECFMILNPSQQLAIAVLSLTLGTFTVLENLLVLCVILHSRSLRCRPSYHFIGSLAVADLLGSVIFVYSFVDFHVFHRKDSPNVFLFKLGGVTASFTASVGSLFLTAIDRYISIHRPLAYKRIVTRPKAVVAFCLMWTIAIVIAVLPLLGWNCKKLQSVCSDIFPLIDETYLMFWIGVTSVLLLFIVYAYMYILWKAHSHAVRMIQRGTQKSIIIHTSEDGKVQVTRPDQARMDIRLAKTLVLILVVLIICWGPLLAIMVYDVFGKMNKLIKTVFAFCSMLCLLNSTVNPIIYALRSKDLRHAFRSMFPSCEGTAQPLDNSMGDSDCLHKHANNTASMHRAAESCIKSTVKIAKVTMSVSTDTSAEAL

With `Cl.Cl.c1ccc(C(NCCNC(c2ccccc2)c2ccccc2)c2ccccc2)cc1` [AMN082] the “luciferase signal in brain slices in comparison to ISO treatment alone” value [1] was “diminished”, the “luciferase levels versus forskolin only” value ([2]; cortical neurons line 187, day 3, 10 μM forskolin, 100 nM and 1 μM AMN082, 4 hours and 8 hours) was “Significant decreases” and the EC50 ([2]; cortical neurons line 187, day 3, in combination with 10 μM forskolin, 4 hours, read-out: calculated EC50 (Gi modulation of luciferase)) was 174 nM. The “decreases in luciferase levels vs. forskolin and rolipram controls” value ([2]; cortical neurons line 187, day 7, 6 hours, 50 μM forskolin and 10 μM rolipram, at 1 μM, 100 nM and 1 nM, p<0.0005) was 59-61%.
With `C[C@H](Cc1ccc2c(c1)OC(C(=O)[O-])(C(=O)[O-])O2)NC[C@H](O)c1cccc(Cl)c1.[Na+].[Na+]` [CL316,243] the induction via bioimaging ([3]; 4 lines, BLI 4-5 hours after treatment) was “visible induction” and the “induction of luciferase in the adipose tissue and lung (tissue homogenates)” value ([3]; 7 of 12 independent transgenic lines screened) was “greater than 10 fold”.
In the case of `CCCCCCC(C)(C)c1ccc([C@@H]2C[C@H](O)CC[C@H]2CCCO)c(O)c1` [CP 55,940], the “luciferase levels, agonist plus forskolin and rolipram versus forskolin and rolipram alone” value ([4]; cortical neurons line 187, 10 μM, 1 μM and 100 nM, forskolin and rolipram 10 μM, 8 hours) is reported as “Significant decreases” and the “luciferase signal with addition of CB1 agonist in different CreLuc lines” value ([4]; lines 69, 187, 175 and 219, 10 μM with forskolin 5 μM and rolipram 10 μM, four and twenty-four hours) is reported as “Decreased signals”.
In the case of `COc1ccc(C2CNC(=O)NC2)cc1O[C@H]1C[C@@H]2CC[C@H]1C2` [CP-80,633], the “plasma cAMP levels” value [5] is given as “significantly increase”.
In the case of `C=CCN1CCc2c(cc(O)c(O)c2Cl)C(c2ccccc2)C1` (stereo not drawn) [SKF82958], the “induction of luciferase in combination with rolipram compared to rolipram alone” value ([6]; cortical neurons line 187, 10 μM with 10 μM rolipram) is reported as 2 fold and the “luciferase levels, agonist alone” value ([6]; cortical neurons line 187, day 3, 10 μM) is reported as “did not significantly increase”.
For “AVE0010: glucagon-like peptide 1 receptor (GLP-1R) agonist”, the “luciferase activity in tissue homogenates of 8 tissues” value ([7]; lines 11, 16 and 90, 0.1 mg/kg, s.c., 4 hours) was “pancreas-specific induction of luciferase”, the “bioimaging response of mice before and after treatment” value ([7]; male line 11, 0.1 mg/kg, sc) was “responsive” and the “transgene activation in the pancreas (bioimaging)” value ([7]; three independent lines, 0.1 mg/kg, sc, imaged after 4 hours) was “strong induction”. For the same compound, the “non-fasting BG levels” value [8] was “reduced”.
